Reference: ChEMBL document CHEMBL1149524 (Bioorg Med Chem Lett, 2006)
Converted amounts (≈) assume the structure as drawn.

Assays:
[1] = target: Procathepsin L (Homo sapiens, UniProt P07711)
Description: Inhibition of cathepsin L

[2] = target: T1, Cathepsin K (Homo sapiens, UniProt P43235); experiment: Inhibition of cathepsin K; type: single protein
T1 sequence (P43235 whole entry): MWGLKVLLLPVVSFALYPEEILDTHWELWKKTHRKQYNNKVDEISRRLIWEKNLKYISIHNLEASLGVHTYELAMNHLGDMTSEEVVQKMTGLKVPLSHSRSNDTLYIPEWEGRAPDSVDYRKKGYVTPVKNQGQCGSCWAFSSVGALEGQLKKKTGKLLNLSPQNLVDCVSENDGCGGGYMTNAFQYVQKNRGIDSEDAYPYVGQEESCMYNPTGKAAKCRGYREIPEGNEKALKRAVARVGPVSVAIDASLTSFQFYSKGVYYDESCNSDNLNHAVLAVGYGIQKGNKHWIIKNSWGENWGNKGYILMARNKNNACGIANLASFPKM

[3] = target: Cathepsin S (Homo sapiens, UniProt P25774); experiment: Inhibition of cathepsin S; type: single protein
[4] = Solubility at pH 6.8; type: physicochemical; conditions: buffer
[5] = test system: Liver microsomes; experiment: Stability in rat liver microsomes; type: ADME, Microsome
[6] = Cmax in Wistar rat at 10 mg/kg, po; type: ADME, organism-based; parameters: dose 10 mg/kg, route oral; conditions: in vivo
[7] = Volume of distribution in Wistar rat at 3 mg/kg, iv; type: ADME, organism-based; parameters: dose 3 mg/kg, route intravenous; conditions: in vivo, read-out: Vdss
[8] = Clearance in Wistar rat at 3 mg/kg, iv; type: ADME, organism-based; parameters: dose 3 mg/kg, route intravenous; conditions: in vivo
[9] = Half life in Wistar rat at 3 mg/kg, iv; type: ADME, organism-based; parameters: dose 3 mg/kg, route intravenous; conditions: in vivo
[10] = AUC in Wistar rat at 10 mg/kg, po; type: ADME, organism-based; parameters: dose 10 mg/kg, route oral; conditions: plasma
[11] = Bioavailability in Wistar rat at 10 mg/kg, po; type: ADME, organism-based; conditions: in vivo
[12] = Half life in Wistar rat at 10 mg/kg, po; type: ADME, organism-based; parameters: dose 10 mg/kg, route oral; conditions: in vivo
[13] = target: Cathepsin B (Homo sapiens, UniProt P07858); experiment: Inhibition of cathepsin B
[14] = target: T2, Pro-cathepsin H (Homo sapiens, UniProt P09668); experiment: Inhibition of cathepsin H
T2 sequence (P09668 whole entry): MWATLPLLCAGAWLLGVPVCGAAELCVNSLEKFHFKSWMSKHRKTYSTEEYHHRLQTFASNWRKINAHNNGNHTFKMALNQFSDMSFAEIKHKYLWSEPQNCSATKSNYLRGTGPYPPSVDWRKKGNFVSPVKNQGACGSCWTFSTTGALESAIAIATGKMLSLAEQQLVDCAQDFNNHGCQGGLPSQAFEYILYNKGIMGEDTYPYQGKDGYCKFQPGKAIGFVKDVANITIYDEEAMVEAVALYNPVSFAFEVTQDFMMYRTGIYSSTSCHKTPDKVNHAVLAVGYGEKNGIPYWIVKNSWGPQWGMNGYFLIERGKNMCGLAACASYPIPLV

[15] = target: T3, Cathepsin L2 (Homo sapiens, UniProt O60911); experiment: Inhibition of cathepsin V
T3 sequence (O60911 whole entry): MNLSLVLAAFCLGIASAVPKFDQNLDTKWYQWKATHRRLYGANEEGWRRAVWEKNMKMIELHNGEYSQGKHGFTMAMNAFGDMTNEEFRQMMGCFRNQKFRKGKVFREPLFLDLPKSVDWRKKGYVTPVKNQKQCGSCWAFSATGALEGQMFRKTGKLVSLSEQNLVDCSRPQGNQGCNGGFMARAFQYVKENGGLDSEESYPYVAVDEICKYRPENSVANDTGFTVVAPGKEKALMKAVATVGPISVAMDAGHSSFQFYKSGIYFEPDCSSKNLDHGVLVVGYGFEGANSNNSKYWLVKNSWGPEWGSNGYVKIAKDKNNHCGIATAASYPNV

[16] = target: Cathepsin Z (Homo sapiens, UniProt Q9UBR2); experiment: Inhibition of cathepsin X
[17] = target: T4, Cathepsin F (Homo sapiens, UniProt Q9UBX1); experiment: Inhibition of cathepsin F
T4 sequence (Q9UBX1 whole entry): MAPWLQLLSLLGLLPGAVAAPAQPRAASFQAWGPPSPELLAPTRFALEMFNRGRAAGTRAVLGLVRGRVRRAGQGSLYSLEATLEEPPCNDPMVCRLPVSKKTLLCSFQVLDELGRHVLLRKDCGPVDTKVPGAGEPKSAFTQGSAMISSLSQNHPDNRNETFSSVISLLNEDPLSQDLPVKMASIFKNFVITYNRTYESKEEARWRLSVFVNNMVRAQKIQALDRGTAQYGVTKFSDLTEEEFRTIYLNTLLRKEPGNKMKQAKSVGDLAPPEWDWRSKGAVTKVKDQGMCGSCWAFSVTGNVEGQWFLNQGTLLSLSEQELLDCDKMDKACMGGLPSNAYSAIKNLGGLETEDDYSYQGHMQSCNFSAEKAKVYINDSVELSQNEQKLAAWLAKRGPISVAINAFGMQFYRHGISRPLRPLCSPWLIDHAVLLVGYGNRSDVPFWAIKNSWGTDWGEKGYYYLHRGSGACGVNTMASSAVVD

Sequence of Cathepsin S (P25774 whole entry): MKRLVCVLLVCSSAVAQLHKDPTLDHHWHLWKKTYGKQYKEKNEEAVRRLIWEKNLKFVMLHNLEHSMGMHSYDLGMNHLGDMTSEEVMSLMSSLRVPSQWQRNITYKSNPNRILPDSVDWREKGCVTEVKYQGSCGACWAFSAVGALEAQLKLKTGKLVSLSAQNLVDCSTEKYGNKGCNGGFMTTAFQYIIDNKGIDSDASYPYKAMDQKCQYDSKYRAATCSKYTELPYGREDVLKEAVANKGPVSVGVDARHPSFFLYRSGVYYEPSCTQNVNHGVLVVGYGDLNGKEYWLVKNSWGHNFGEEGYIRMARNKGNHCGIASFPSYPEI
Sequence of Procathepsin L (P07711 whole entry): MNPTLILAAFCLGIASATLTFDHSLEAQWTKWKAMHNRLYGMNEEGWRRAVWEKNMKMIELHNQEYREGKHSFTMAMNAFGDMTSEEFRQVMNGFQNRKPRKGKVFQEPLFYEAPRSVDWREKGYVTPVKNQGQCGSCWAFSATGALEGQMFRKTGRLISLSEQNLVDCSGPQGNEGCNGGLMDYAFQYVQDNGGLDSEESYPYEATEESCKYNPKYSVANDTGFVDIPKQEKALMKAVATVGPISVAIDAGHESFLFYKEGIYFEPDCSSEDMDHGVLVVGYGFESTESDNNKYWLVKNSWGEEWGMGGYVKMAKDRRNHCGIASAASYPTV
Sequence of Cathepsin Z (Q9UBR2 whole entry): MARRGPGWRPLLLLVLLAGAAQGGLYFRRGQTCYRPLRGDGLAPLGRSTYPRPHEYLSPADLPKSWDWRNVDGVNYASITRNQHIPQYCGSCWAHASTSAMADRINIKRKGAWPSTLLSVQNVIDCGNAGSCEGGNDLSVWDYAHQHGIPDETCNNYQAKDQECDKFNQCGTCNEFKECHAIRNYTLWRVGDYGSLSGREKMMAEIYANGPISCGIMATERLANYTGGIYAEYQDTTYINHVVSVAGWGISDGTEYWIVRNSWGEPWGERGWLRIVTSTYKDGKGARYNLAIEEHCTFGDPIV

Ki [1] [nM] | Ki [2] [nM] | Ki [3] [nM] | Structure (SMILES) | further results
> 100000 | > 100000 | 11400 | O=C(NCCNc1ccc(OC(F)(F)F)cc1)[C@H](Cc1ccccc1)NC(=O)N1CCOCC1 | 
 | 1660 | 11 | C[C@@H](CNc1ccc(OC(F)(F)F)cc1)NC(=O)[C@H](CC1CCCCC1)NC(=O)N1CCOCC1 | 
 | 14300 | 12 | C[C@@H](CNc1ccc(OC(F)(F)F)cc1)NC(=O)[C@H](CC1CCCCC1)NC(=O)C1CCOCC1 | 
594 | > 30000 | 49 | C[C@@H](CNc1ccc(OC(F)(F)F)cc1)NC(=O)[C@H](CC1CCCCC1)NC(=O)O[C@H]1CCOC1 | 
 | 13300 | 12 | C[C@@H](CNc1ccc(OC(F)(F)F)cc1)NC(=O)[C@H](CC1CCCCC1)NC(=O)OC1CCOCC1 | 
 | 18800 | 99 | O=C(NCCNc1ccc(OC(F)(F)F)cc1)[C@H](CC1CCCCC1)NC(=O)N1CCOCC1 | 
2570 | > 30000 | 42 | C[C@@H](CNc1ccc(OC(F)(F)F)cc1)NC(=O)[C@H](CC1CCCCC1)NC(=O)O[C@@H]1CCOC1 | 
 | 4610 | 18 | C[C@@H](CNc1ccc(OC(F)(F)F)cc1)NC(=O)[C@H](CC1CCCCC1)NC(=O)[C@H]1CCCO1 | solubility [4]: 25 µg/mL (≈ 51.5 µM); Cmax [6]: 1240 nM; Vd [7]: 1.78 L/kg; clearance [8]: 35 mL/min/kg; Stability [5]: 66%; half-life [9]: 1.1 h; AUC [10]: 1750 ng·h/mL; bioavailability [11]: 36%; half-life [12]: 0.967 h
 | 9340 | 6 | O=C(N[C@@H](CC1CCCCC1)C(=O)NCCNc1ccc(OC(F)(F)F)cc1)c1ccoc1 | 
> 30000 | 1330 | 220 | CC(C)(C)C[C@H](NC(=O)N1CCOCC1)C(=O)NCCNc1ccc(OC(F)(F)F)cc1 | 
> 30000 | > 100000 |  | C[C@@H](CNc1ccc(OC(F)(F)F)cc1)NC(=O)[C@H](CS(=O)(=O)Cc1ccccc1)NC(=O)N1CCOCC1 | Ki [13]: > 30000 nM; Ki [14]: > 30000 nM; Ki [15]: > 30000 nM; solubility [4]: 43 µg/mL (≈ 75.1 µM); Cmax [6]: 639 nM; Vd [7]: 0.87 L/kg; Ki [16]: > 30000 nM; clearance [8]: 39 mL/min/kg; Stability [5]: 100%; half-life [9]: 0.817 h; Ki [17]: > 30000 nM; AUC [10]: 700 ng·h/mL; bioavailability [11]: 16%; half-life [12]: 1.1 h

Further lines, the compound ahead of its results:

Structure (SMILES) | Ki [1] [nM] | Ki [2] [nM] | Ki [3] [nM] | further results
C[C@@H](CN1c2ccc(F)cc2CC1(C)C)NC(=O)[C@H](CC1CCCCC1)NC(=O)N1CCOCC1 |  | 13100 | 111 | 
C[C@@H](CN1CC(C)(C)c2cc(F)ccc21)NC(=O)[C@H](CC1CCCCC1)NC(=O)N1CCOCC1 | 810 | 16900 | 11 | solubility [4]: 10 µg/mL (≈ 20.5 µM); Stability [5]: < 1%
O=C(N[C@@H](CC1CCCCC1)C(=O)NCCNc1ccc(OC(F)(F)F)cc1)C1CCOC1 (stereo partly drawn) | 7940 | > 30000 | 213 | 
C[C@@H](CNc1ccc(OC(F)(F)F)cc1)NC(=O)[C@H](CC1CCCCC1)NC(=O)C1CCOC1 (stereo partly drawn) | 4790 | > 30000 | 21 | solubility [4]: 30 µg/mL (≈ 61.8 µM); Cmax [6]: 491 nM; Vd [7]: 2.48 L/kg; clearance [8]: 39 mL/min/kg; Stability [5]: 56%; half-life [9]: 1.8 h; AUC [10]: 817 ng·h/mL; bioavailability [11]: 19%; half-life [12]: 1.5 h
CC[C@@H](CNc1ccc(OC(F)(F)F)cc1)NC(=O)[C@H](CC1CCCCC1)NC(=O)N1CCOCC1 | 6 | 130 | 11 | 
C[C@@H](CNc1ccc(OC(F)(F)F)cc1)NC(=O)[C@H](CSCc1ccccc1)NC(=O)N1CCOCC1 |  | 2480 | 12 | 
CS(=O)(=O)CC[C@@H](CNc1ccc(OC(F)(F)F)cc1)NC(=O)[C@H](CC1CCCCC1)NC(=O)N1CCOCC1 | 4 | 139 | 5 | 
O=C(N[C@@H](CC1CCCCC1)C(=O)NCCNc1ccc(OC(F)(F)F)cc1)c1ccc(-c2cccc(C(F)(F)F)c2)o1 |  | 8580 | 11 | 
C[C@@H](CNc1ccc(OC(F)(F)F)cc1)NC(=O)[C@H](CC(C)(C)C)NC(=O)N1CCOCC1 | 14600 | 461 | 93 | 
O=C(N[C@@H](CC1CCCCC1)C(=O)NCCNc1ccc(OC(F)(F)F)cc1)c1ccco1 | 1150 | 8810 | 47 | 
O=C(N[C@@H](CC1CCCCC1)C(=O)NCCNc1ccc(OC(F)(F)F)cc1)c1ccc(-c2cccc(F)c2)o1 |  | 11700 | 34 | 
O=C(NCCNc1ccc(OC(F)(F)F)cc1)[C@H](CC1CCCCC1)NC(=O)[C@H]1CCCO1 | 3120 | > 30000 | 658 | 
C[C@@H](CN1CCc2cc(F)ccc21)NC(=O)[C@H](CC1CCCCC1)NC(=O)N1CCOCC1 |  | 5130 | 87 | 
C[C@@H](CNc1ccc(OC(F)(F)F)cc1)NC(=O)[C@H](CC1CCCC1)NC(=O)N1CCOCC1 |  | 1540 | 49 | 
COc1ccc(NCCNC(=O)[C@H](CC2CCCCC2)NC(=O)c2ccc(-c3cccc(C(F)(F)F)c3)o2)cc1 |  |  |  | solubility [4]: < 1 µg/mL; Cmax [6]: 19 nM; Stability [5]: 12%; AUC [10]: 50 ng·h/mL; half-life [12]: 2.43 h
O=C(N[C@@H](CC1CCCCC1)C(=O)NCCNc1ccc(OC(F)(F)F)cc1)c1cc2ccccc2o1 |  | 150 | 17 | 
COc1ccc(NCCNC(=O)[C@H](CC2CCCCC2)Nc2nc3ccccc3o2)cc1 |  |  |  | solubility [4]: 10 µg/mL (≈ 22.9 µM); Stability [5]: 4%; bioavailability [11]: < 1%
C[C@@H](CNc1ccc(OC(F)(F)F)cc1)NC(=O)[C@H](CC1CCCCC1)NC(=O)[C@@H]1CCCO1 |  | > 30000 | 53 | 
